Test results: PubChem BioAssay AID623879 (Vanderbilt Specialized Chemistry Center, 2012)
Activity calls are given as the source filed them.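 How the source made its calls: active means fold shift at least 2 as potentiator or at most 0.5 as antagonist, actives on both sides; inactive means fold shift between 0.5 and 2.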

Target: Metabotropic glutamate receptor 3 (Rattus norvegicus) (UniProt P31422)
Assay: rat mGlu3 allosteric modulation, SAR follow-up, selectivity assay for mGlu4 PAM optimization project, cell-based, GIRK thallium flux (AID 623879)
Conditions: rat mGlu3 cells, glutamate CRC shift, at 10 µM

Sequence of Metabotropic glutamate receptor 3 (Rattus norvegicus) (P31422 whole entry, looked up): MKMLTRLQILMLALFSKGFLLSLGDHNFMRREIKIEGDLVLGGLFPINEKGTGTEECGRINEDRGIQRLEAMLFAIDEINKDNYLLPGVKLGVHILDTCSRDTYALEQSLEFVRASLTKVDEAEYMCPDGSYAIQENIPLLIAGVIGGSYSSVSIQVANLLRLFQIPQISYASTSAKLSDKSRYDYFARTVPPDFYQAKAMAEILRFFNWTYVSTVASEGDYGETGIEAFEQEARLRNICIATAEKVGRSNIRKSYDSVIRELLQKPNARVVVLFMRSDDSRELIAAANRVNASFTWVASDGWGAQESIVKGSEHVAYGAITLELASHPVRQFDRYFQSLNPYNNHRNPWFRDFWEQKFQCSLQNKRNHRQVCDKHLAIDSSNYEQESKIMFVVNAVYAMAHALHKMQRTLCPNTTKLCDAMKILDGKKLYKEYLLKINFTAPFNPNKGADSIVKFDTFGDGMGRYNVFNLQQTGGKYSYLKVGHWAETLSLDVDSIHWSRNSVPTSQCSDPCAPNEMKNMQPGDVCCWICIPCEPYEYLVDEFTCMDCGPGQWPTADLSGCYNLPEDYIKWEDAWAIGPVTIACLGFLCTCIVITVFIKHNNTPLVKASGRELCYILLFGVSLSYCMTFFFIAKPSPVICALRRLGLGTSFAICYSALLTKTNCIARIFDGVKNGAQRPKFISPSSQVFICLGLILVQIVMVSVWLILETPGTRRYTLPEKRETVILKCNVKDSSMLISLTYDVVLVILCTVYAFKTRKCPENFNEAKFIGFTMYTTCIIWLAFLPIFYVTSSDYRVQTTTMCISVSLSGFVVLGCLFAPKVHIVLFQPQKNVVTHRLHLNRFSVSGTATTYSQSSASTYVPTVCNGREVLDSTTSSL

O=C(Nc1cccc(Cl)c1)c1ccccn1
fold shift: 0.897 (inactive) | max response (measured here: glutamate max response with compound, stronger effect = higher value): 98.7%
